Assays:
CaSR de rat = biological target: T1, CaSR de rat (Rattus norvegicus, UniProt P48442); experiment: Accumulation of tritiated inositol phosphates ([3H]IP) in transfected CHO(CaSR) cells; type: cell-based; settings: compound 10 µM; for activation at 10 µM: in presence of 2 mM Ca^2+, mean ± standard error of 2 to 5 independent experiments, read-out: Accumulation d'(^3H)-IP % de la réponse 10mM Ca^2+ ± E.S.
T1 construct: expressed in transfected cells; host or cells: CHO (Chinese hamster ovary) cells, line CHO(CaSR)
T1 sequence (P48442 20-1079): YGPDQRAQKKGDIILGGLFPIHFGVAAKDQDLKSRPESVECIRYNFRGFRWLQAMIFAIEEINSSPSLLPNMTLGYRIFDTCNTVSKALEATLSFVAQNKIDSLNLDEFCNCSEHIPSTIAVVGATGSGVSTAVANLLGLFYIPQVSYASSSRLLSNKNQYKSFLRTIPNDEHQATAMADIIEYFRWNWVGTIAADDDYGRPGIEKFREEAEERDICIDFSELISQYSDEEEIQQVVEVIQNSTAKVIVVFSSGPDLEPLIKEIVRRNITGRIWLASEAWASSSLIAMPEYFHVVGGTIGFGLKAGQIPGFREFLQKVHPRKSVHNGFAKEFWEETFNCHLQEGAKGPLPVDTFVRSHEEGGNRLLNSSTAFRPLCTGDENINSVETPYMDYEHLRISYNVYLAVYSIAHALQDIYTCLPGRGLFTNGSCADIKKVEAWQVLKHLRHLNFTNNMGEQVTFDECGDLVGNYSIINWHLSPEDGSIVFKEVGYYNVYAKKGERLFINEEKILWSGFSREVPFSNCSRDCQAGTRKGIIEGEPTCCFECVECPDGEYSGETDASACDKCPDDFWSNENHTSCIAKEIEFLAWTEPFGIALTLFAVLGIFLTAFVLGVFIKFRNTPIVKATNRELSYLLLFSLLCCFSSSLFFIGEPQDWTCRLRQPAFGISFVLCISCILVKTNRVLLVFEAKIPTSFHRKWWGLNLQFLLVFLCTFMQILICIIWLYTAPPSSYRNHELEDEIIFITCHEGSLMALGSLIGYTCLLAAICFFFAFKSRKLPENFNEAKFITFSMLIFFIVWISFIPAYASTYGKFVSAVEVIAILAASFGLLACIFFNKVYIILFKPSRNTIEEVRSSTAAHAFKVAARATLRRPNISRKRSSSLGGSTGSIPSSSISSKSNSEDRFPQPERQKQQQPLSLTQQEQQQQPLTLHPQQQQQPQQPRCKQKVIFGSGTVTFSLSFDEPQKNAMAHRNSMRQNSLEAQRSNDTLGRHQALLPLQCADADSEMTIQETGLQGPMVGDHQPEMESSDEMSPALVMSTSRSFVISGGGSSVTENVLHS
Text: L'ADN complémentaire codant pour le CaSR de rat a été isolé à partir d'une banque ADNc de striatum de rat (Ruat et al, Proc. Natl. Acad. Sci., 1995). Ce récepteur est identique au niveau de sa séquence en acides aminés à celui exprimé dans les autres tissus. Des cellules ovariennes de hamster chinois (CHO) transfectées exprimant le CaSR de rat (CHO(CaSR)) ont été caractérisées et les signaux chimiques (seconds messagers) induits par l'activation de ce récepteur ont été analysés. Ainsi, un test biochimique permettant de mesurer l'accumulation d'inositols phosphates tritiés [^3H]IP en réponse à l'activation du récepteur a été mis au point (Ruat et al, J. Biol. Chem., 1996; Ferry et al, Biochem. Biophys. Res. Commun., 1997).
L'activité calcimimétique des composés a été estimée en mesurant l'accumulation d'inositols phosphates tritiés induite par 10 µM de chacun des composés en présence de 2 mM de Ca^2+ dans les cellules CHO(CaSR) (Ferry et al, Biochem Biophys Res Commun, 1997).
Cette activation a été comparée à celle induite par le composé NPS-R- 568, un calcimimétique de référence et utilisé à une concentration de 10 µM (Tableau 1) (Ferry et al, Biochem Biophys Res Commun, 1997; Nemeth et al, Proc Natl Acad Sci USA, 1997).
Dans le tableau 1, l'activité calcimimétique des composés PHD est comparée à celle d'un composé de référence, le NPS-R-568 utilisé à la même concentration et dans les mêmes conditions expérimentales. Cette activité est exprimée en pourcentage de l'activité de 10 mM de Ca^2+. Les moyennes ± erreurs standards de 2 à 5 manipulations indépendantes sont indiquées. Les expériences ont été réalisées en présence de 2 mM de Ca^2+.
(§1) L'accumulation d'inositols phosphates tritiés est exprimée en pourcentage du taux de base observé en présence de 2 mM Ca^2+ (100 %) dans les cellules CHO(WT*) ou CHO(CaSR).

cellules CHO(WT*) = experiment: Specificity control: [3H]IP accumulation in CHO(WT*) control cells transfected with the plasmid alone, not expressing CaSR; type: cell-based, hamster chinois; settings: compound 10 µM, basal level in presence of 2 mM Ca^2+ = 100 %
Description: Les molécules PHD, utilisées à une concentration de 10 µM ne conduisent pas ou peu à l'accumulation d'[^3H]IP dans des cellules CHO(WT*) témoins ce qui suggère leur spécificité d'action vis-à-vis du CaSR (Tableau 2). Les cellules CHO(WT*) ont été tranfectées avec le plasmide seul et n'expriment pas le CaSR.
as §1

| Compound | activation at 10 µM (CaSR de rat) [%] | also measured |
| --- | --- | --- |
| COc1ccc(S(=O)(=O)NC(CNC(C)c2cccc3ccccc23)Cc2ccccc2OC)cc1 (stereo not drawn) [PHD 230] | 65 ± 2 | – |
| COc1cccc([C@@H](C)NC(CNS(=O)(=O)c2ccc(C)cc2)c2ccccc2)c1 (stereo partly drawn) [PHD 178 A] | 6 ± 6 | – |
| CC(NS(=O)(=O)c1ccc2ccccc2c1)c1cccc2ccccc12 (stereo not drawn) [PHD 317] | 29 ± 13 | – |
| COc1ccc(S(=O)(=O)NC(CNC(C)c2cccc3ccccc23)Cc2ccc3c(c2)OCO3)cc1 (stereo not drawn) [PHD 271] | 47 ± 2 | – |
| CC(NCC(Cc1ccccc1)NCc1ccccc1F)c1cccc2ccccc12 (stereo not drawn) [PHD 323] | 90 ± 8 | – |
| COc1cccc([C@@H](C)NCC(NS(=O)(=O)c2ccc(C)cc2)c2ccccc2)c1 (stereo partly drawn) [PHD 178 B] | 22 ± 10 | – |
| CC(NCC(Cc1ccccc1)NS(=O)(=O)c1cccs1)c1cccc2ccccc12 (stereo not drawn) [PHD 316] | 78 ± 1 | – |
| CC(NCC(Cc1ccccc1)NS(=O)(=O)c1ccc(Cl)cc1)c1cccc2ccccc12 (stereo not drawn) [PHD 203] | 38 ± 20 | – |
| Cc1ccc(S(=O)(=O)NC(CNC(C)c2ccccc2)Cc2ccccc2)cc1 (stereo not drawn) [PHD 121] | 23 ± 15 | – |
| COc1ccc(S(=O)(=O)NC(CNC(C)c2cccc3ccccc23)Cc2ccccc2Cl)cc1 (stereo not drawn) [PHD 242] | 60 ± 4 | – |
| CC(NCC(Cc1ccccc1)NS(C)(=O)=O)c1cccc2ccccc12 (stereo not drawn) [PHD 322] | 57 ± 6 | – |
| Cc1ccc(S(=O)(=O)NCC(NC(C)c2cccc3ccccc23)c2ccccc2)cc1 (stereo not drawn) [PHD 176 A] | 6 ± 1 | – |
| CC(NCC(Cc1ccccc1)NCc1ccccc1Cl)c1cccc2ccccc12 (stereo not drawn) [PHD 307, N^2-(2-Chlorobenzyl)-N^1-[1-(1-naphtyl)éthyl]-3-phénylpropane-1,2-diamine] | 98 ± 8 | Accumulation d'(^3H)-IP % du taux basal. CHO (CaSR) (CaSR de rat; basal level in presence of 2 mM Ca^2+ = 100 %): une forte accumulation; activity at 10 µM (CaSR de rat; basal level in presence of 2 mM Ca^2+ = 100 %, read-out: Accumulation d'(^3H)-IP % du taux basal. CHO (CaSR)): 393 ± 28%; Accumulation d'(^3H)-IP % du taux basal. CHO (WT*) (cellules CHO(WT*)): peu ou pas d'accumulation; activity at 10 µM (cellules CHO(WT*); read-out: Accumulation d'(^3H)-IP % du taux basal. CHO (WT*)): 134 ± 11% |
| COc1ccc(S(=O)(=O)NC(CNC(C)c2cccc3ccccc23)Cc2cccc(C)c2OC)cc1 (stereo not drawn) [PHD 235] | 37 ± 5 | – |
| CC(NCC(Cc1ccccc1)NS(=O)(=O)c1ccc(C(F)(F)F)cc1)c1cccc2ccccc12 (stereo not drawn) [PHD 304] | 29 ± 2 | – |
| Cc1ccc(S(=O)(=O)NC(CNC(C)c2cccc3ccccc23)Cc2ccccc2)cc1 (stereo not drawn) [PHD 181] | 68 ± 9 | – |
| CC(NCC(Cc1ccccc1)NS(=O)(=O)c1ccc([N+](=O)[O-])cc1)c1ccccc1 (stereo not drawn) [PHD 87] | 8 ± 4 | – |
| COc1ccc(S(=O)(=O)NC(CCc2ccccc2)CNC(C)c2cccc3ccccc23)cc1 (stereo not drawn) [PHD 218] | 39 ± 1 | – |
| CC(NCC(Cc1ccccc1)NS(=O)(=O)c1ccccc1C(F)(F)F)c1cccc2ccccc12 (stereo not drawn) [PHD 306] | 48 ± 9 | – |
| CC(NCC(Cc1ccccc1)NS(=O)(=O)c1ccc2ccccc2c1)c1cccc2ccccc12 (stereo not drawn) [PHD 318] | 34 ± 2 | – |
